Drawing on ChEMBL document CHEMBL5241112, “Insights into the recent progress in the medicinal chemistry of pyranopyrimidine analogs” (RSC Med Chem, 2022), this text covers Activity, IC50 and LC50 for five compounds.

The test system of data set [1] is Human alphaherpesvirus 1. As to the kind of experiment: Antiviral activity against HSV-1 assessed as inhibition of viral replication at 20 ug. The class given is functional. Also noted: scale not given: the % may be the effect or the level left. To be noted: dose 20 µg.
For data set [2], the system named is Human alphaherpesvirus 1. As to the kind of experiment: Antiviral activity against HSV-1 assessed as inhibition of viral replication at 40 ug. Details: scale not given: the % may be the effect or the level left. To be noted: dose 40 µg. Type of data set: functional.
The test system of data set [3] is NUGC. As to the kind of experiment: Anticancer activity against human NUGC cells assessed as cell growth inhibition incubated for 24 hrs. The class given is functional, cell-based.
The subject of data set [4] is DLD-1. Kind of data set: Anticancer activity against human DLD-1 cells assessed as cell growth inhibition incubated for 24 hrs. Type of data set: functional, cell-based. To be noted: DLD-1, 24 h.
The subject of data set [5] is HepG2. Kind of data set: Anticancer activity against human HepG2 cells assessed as cell growth inhibition incubated for 24 hrs. Type of data set: functional, cell-based. To be noted: HepG2, 24 h.
For data set [6], the system named is HONE1 cell line. As to the kind of experiment: Anticancer activity against human HONE1 cell line assessed as cell growth inhibition incubated for 24 hrs. The class given is functional, cell-based. To be noted: HONE1, 24 h.
The test system of data set [7] is MCF7. As to the kind of experiment: Anticancer activity against human MCF7 cells assessed as cell growth inhibition incubated for 24 hrs. Type of data set: functional, cell-based. To be noted: MCF7, 24 h.
Data set [8] in a line: Cytotoxicity against human WI-38 cells assessed as cell growth inhibition incubated for 24 hrs. The class given is toxicity, cell-based.
Data set [9] concerns WI-38. Kind of data set: Cytotoxicity against human WI-38 cells assessed as lethality incubated for 24 hrs. The class given is toxicity, cell-based. To be noted: wi-38, 24 h.
Data set [10] concerns HA22T cell line. As to the kind of experiment: Anticancer activity against human HA22T cells assessed as cell growth inhibition incubated for 24 hrs. Type of data set: functional, cell-based.
Data set [11] concerns A549. As to the kind of experiment: Anticancer activity against human A549 cells assessed as reduction in cell viability incubated for 24 hrs by MTT assay. To be noted: A549, 24 h. Type of data set: functional, cell-based. On the technique in general: Tetrazolium assays rely on reduction of a dye to a coloured formazan, in cell work by metabolically active cells.
In data set [12] the test system is MCF7. Kind of data set: Anticancer activity against human MCF7 cells assessed as reduction in cell viability incubated for 24 hrs by MTT assay. To be noted: MCF7, 24 h. Type of data set: functional, cell-based.
Data set [13] concerns SK-OV-3. As to the kind of experiment: Anticancer activity against human SK-OV-3 cells assessed as reduction in cell viability incubated for 24 hrs by MTT assay. Type of data set: functional, cell-based. The conditions noted are these: SK-OV-3, 24 h.
The subject of data set [14] is U-937. Kind of data set: Induction of apoptosis in human U-937 cells assessed as total apoptotic cells at 50 uM incubated for 50 hrs by FACS analysis. Type of data set: functional. For orientation: A flow cytometer gives signals particle by particle.

pIC50: −log10 of the molar value. In brackets after ≈: the same amount, converted by molar mass.

As for `Cc1nc2c(c(=O)[nH]1)C(c1ccc([N+](=O)[O-])cc1)c1c(n[nH]c1C)O2` (centres undefined), the Activity in data set [1] turned out to be 63%; in data set [2], 95%.

In the case of `N#CC1=C(N)C2C(=NC(NNc3ccccc3)=NC2c2ccc(Cl)cc2)OC1=O` (centres undefined), the pIC50 (in general, the negative decadic logarithm of the IC50, by convention in mol/L) is 7.26 in data set [3]; 6.84 in [4]; 6.28 in [5]; 6.27 in data set [6]; 6.55 in data set [7]. For the same compound, the 50% inhibitory concentration (IC50) – broadly, the point on the concentration scale where inhibition reaches its midpoint – at 24 h in data set [8] was 222 nM. Moreover, the LC50 – broadly, the concentration lethal to half of the exposed cells or organisms – in [9] is 18.38 µg/mL (≈ 45.2 µM).

For the compound `N#CC1=C(N)C2C(=NC(NN)=NC2c2ccc(Cl)cc2)OC1=O` (centres undefined), the pIC50 in data set [3] was 6.48; in data set [4], 6.22; in data set [10], 6.55; in data set [5], 6.58; in data set [6], 6.70; in [7], 6.46.

Take `CCOC(=O)C1=C(C)Oc2nc(C)n(Cc3cn(-c4ccc([N+](=O)[O-])cc4)nn3)c(=O)c2C1c1ccccc1` (centres undefined): the negative logarithm of the IC50 (pIC50) in data set [11] was 6.16; in data set [12], 4.15; in data set [13], 4.02.

Take `O=c1nc2oc3ccc4ccccc4c3cc-2c(=O)n1-c1ccccc1`: in [14], the Activity worked out at 28.4%.
